Data on 17 compounds can be found in patent US7736537B1, “Replacement solvents having improved properties for refrigeration flushes” (Mainstream Engineering Corp., priority 2008, dated 2010).

The conditions of the first series: Table 1; cited from earlier work.
As to `C=C(C(F)(F)F)C(F)(F)Br` [3-bromo-3,3-difluoro-2-(trifluoromethyl)-propene], the BP is reported as 49.7 C.

Take `FC(F)=C(F)C(F)(F)CBr` [4-bromo-1,1,2,3,3-pentafluorobutene]: the BP is on record as 80.4 C.

Regarding `O=C(OC(=O)C(F)(F)F)C(F)(F)F` [trifluoroacetic anhydride], the BP is 40.2 C.

For `C=CC(F)(F)C(F)(F)Br` [4-bromo-3,3,4,4-tetrafluoro-1-butene], the BP is on record as 55.0 C.

Regarding `FC(F)(F)/C(Cl)=C(\Cl)C(F)(F)F` [(E)-2,3-dichlorohexafluoro-2-butene], the BP is on record as 68.5 C.

Regarding `C=C(F)C(F)(Br)C(F)(F)F` (stereo not drawn) [3-bromo-2,3,4,4,4-pentafluorobutene], the BP is listed as 69.7 C.

Consider `F/C(Br)=C(/F)OCC(F)(F)F` [(Z)-1-bromo-1,2-difluoro-2-(2,2,2-trifluoroethoxy)-ethene], for which the BP is 87.9 C.

For the compound `FC(C(F)C(F)(F)C(F)(F)F)C(F)(F)F` (stereo not drawn) [2H,3H-decafluoropentane], the BP is recorded as 55.0 C.

Turning to `FC1(F)C(Cl)=C(Cl)C(F)(F)C1(F)F` [1,2-dichloro-hexafluoro-cyclopentene], the BP is reported as 90.0 C.

As for `C=C(F)C(F)(F)C(F)(F)Br` [4-bromo-2,3,3,4,4-pentafluorobutene], the BP is 69.2 C.

In the case of `FC(F)(F)/C=C\C(F)(F)Br` [(Z)-1-bromo-1,1,4,4,4-pentafluoro-2-butene], the BP is recorded as 40.0 C.

Regarding `Fc1c(F)c(F)c(C(F)(F)F)c(F)c1F` [perfluorotoluene], the BP is 104.0 C.

Take `FC(F)OC(Cl)C(F)(F)F` (stereo not drawn) [1-chloro-2,2,2-trifluoroethyl difluoromethyl ether, reference compound]: the BP is listed as 48.8 C.

`CCOC(F)(F)C(F)(F)C(F)(F)C(F)(F)F` [ethyl-perfluorobutyl ether]: the BP is on record as 73.0 C.

Consider `FC(OC(F)(F)Br)=C(C(F)(F)F)C(F)(F)F` [1-(bromodifluoromethoxy)-2-(trifluoromethyl)-1,3,3,3-tetrafluoro-1-propene], for which the BP is on record as 78.6 C.

Take `FC(F)(F)/C=C/C(F)(F)Br` [(E)-1-bromo-1,1,4,4,4-pentafluoro-2-butene]: the BP is 40.0 C.

On to `FC(F)OC(F)(F)C(F)(F)OC(F)F` [bis(difluoromethoxy)-tetrafluoroethane], for which the BP is 58.0 C.

The conditions of another series: solubility parameter, Table 1; cited from earlier work.
For the compound `C=C(C(F)(F)F)C(F)(F)Br` [3-bromo-3,3-difluoro-2-(trifluoromethyl)-propene], the SP is 7.24 (cal/cm^3)^1/2.

On to `FC(F)=C(F)C(F)(F)CBr` [4-bromo-1,1,2,3,3-pentafluorobutene], for which the SP is 7.79 (cal/cm^3)^1/2.

With `O=C(OC(=O)C(F)(F)F)C(F)(F)F` [trifluoroacetic anhydride], the SP is reported as 7.29 (cal/cm^3)^1/2.

Regarding `C=CC(F)(F)C(F)(F)Br` [4-bromo-3,3,4,4-tetrafluoro-1-butene], the SP is listed as 7.44 (cal/cm^3)^1/2.

As to `FC(F)(F)/C(Cl)=C(\Cl)C(F)(F)F` [(E)-2,3-dichlorohexafluoro-2-butene], the SP is recorded as 7.15 (cal/cm^3)^1/2.

`C=C(F)C(F)(Br)C(F)(F)F` (stereo not drawn) [3-bromo-2,3,4,4,4-pentafluorobutene]: the SP is on record as 7.20 (cal/cm^3)^1/2.

Consider `F/C(Br)=C(/F)OCC(F)(F)F` [(Z)-1-bromo-1,2-difluoro-2-(2,2,2-trifluoroethoxy)-ethene], for which the SP is recorded as 7.61 (cal/cm^3)^1/2.

As for `FC(C(F)C(F)(F)C(F)(F)F)C(F)(F)F` (stereo not drawn) [2H,3H-decafluoropentane], the SP is given as 6.84 (cal/cm^3)^1/2.

As for `FC1(F)C(Cl)=C(Cl)C(F)(F)C1(F)F` [1,2-dichloro-hexafluoro-cyclopentene], the SP is 7.90 (cal/cm^3)^1/2.

`C=C(F)C(F)(F)C(F)(F)Br` [4-bromo-2,3,3,4,4-pentafluorobutene]: the SP is 7.21 (cal/cm^3)^1/2.

As to `FC(F)(F)/C=C\C(F)(F)Br` [(Z)-1-bromo-1,1,4,4,4-pentafluoro-2-butene], the SP is on record as 7.25 (cal/cm^3)^1/2.

In the case of `Fc1c(F)c(F)c(C(F)(F)F)c(F)c1F` [perfluorotoluene], the SP is recorded as 7.70 (cal/cm^3)^1/2.

For `FC(F)OC(Cl)C(F)(F)F` (stereo not drawn) [1-chloro-2,2,2-trifluoroethyl difluoromethyl ether, reference compound], the SP is recorded as 7.58 (cal/cm^3)^1/2.

In the case of `CCOC(F)(F)C(F)(F)C(F)(F)C(F)(F)F` [ethyl-perfluorobutyl ether], the SP is 6.85 (cal/cm^3)^1/2.

Turning to `FC(OC(F)(F)Br)=C(C(F)(F)F)C(F)(F)F` [1-(bromodifluoromethoxy)-2-(trifluoromethyl)-1,3,3,3-tetrafluoro-1-propene], the SP is given as 7.06 (cal/cm^3)^1/2.

On to `FC(F)(F)/C=C/C(F)(F)Br` [(E)-1-bromo-1,1,4,4,4-pentafluoro-2-butene], for which the SP is recorded as 7.37 (cal/cm^3)^1/2.

For `FC(F)OC(F)(F)C(F)(F)OC(F)F` [bis(difluoromethoxy)-tetrafluoroethane], the SP is 7.50 (cal/cm^3)^1/2.

Details in another series: not given
The text has this: Parameters such as the lethal dose 50 (LD50), lethal concentration 50 (LC50), cardiac sensitization, skin irritation, and mutagenicity (e.g., via the Ames test) can be used as toxicity metrics. The LDn or LCn abbreviations, where n is the percent lethality, are used for the dose of a toxicant lethal to n % of a test population. […] Cardiac sensitization is a measure of the ability of a compound to cause cardiac arrhythmia under stress.
The property modification components are chosen from a list of potential replacement solvents. These compounds included halogenated compounds such as halogenated acetates, alcohols, alkanes, cycloalkanes, alkenes, cycloalkenes, amines, anhydrides, aromatics, carbonyls, diones, esters, ethers, heterocyclics and ketones.
Consider `O=C(OC(=O)C(F)(F)F)C(F)(F)F` [trifluoroacetic anhydride], for which the CS/CS113 is on record as 236.9.

Staying with this series, now noted: cardiac sensitization relative to CFC-113.
With `C=C(C(F)(F)F)C(F)(F)Br` [3-bromo-3,3-difluoro-2-(trifluoromethyl)-propene], the CS/CS113 is listed as 15.0.

Consider `FC(F)=C(F)C(F)(F)CBr` [4-bromo-1,1,2,3,3-pentafluorobutene], for which the CS/CS113 is recorded as 25.3.

As to `C=CC(F)(F)C(F)(F)Br` [4-bromo-3,3,4,4-tetrafluoro-1-butene], the CS/CS113 came out at 5.8.

As to `FC(F)(F)/C(Cl)=C(\Cl)C(F)(F)F` [(E)-2,3-dichlorohexafluoro-2-butene], the CS/CS113 came to 72.4.

Turning to `C=C(F)C(F)(Br)C(F)(F)F` (stereo not drawn) [3-bromo-2,3,4,4,4-pentafluorobutene], the CS/CS113 is reported as 4.9.

`F/C(Br)=C(/F)OCC(F)(F)F` [(Z)-1-bromo-1,2-difluoro-2-(2,2,2-trifluoroethoxy)-ethene]: the CS/CS113 is on record as 52.7.

Consider `FC(C(F)C(F)(F)C(F)(F)F)C(F)(F)F` (stereo not drawn) [2H,3H-decafluoropentane], for which the CS/CS113 is on record as 91.5.

For `FC1(F)C(Cl)=C(Cl)C(F)(F)C1(F)F` [1,2-dichloro-hexafluoro-cyclopentene], the CS/CS113 was found to be 9.9.

Take `C=C(F)C(F)(F)C(F)(F)Br` [4-bromo-2,3,3,4,4-pentafluorobutene]: the CS/CS113 is on record as 6.0.

For the compound `FC(F)(F)/C=C\C(F)(F)Br` [(Z)-1-bromo-1,1,4,4,4-pentafluoro-2-butene], the CS/CS113 came to 36.6.

As to `Fc1c(F)c(F)c(C(F)(F)F)c(F)c1F` [perfluorotoluene], the CS/CS113 was 64.0.

As to `FC(F)OC(Cl)C(F)(F)F` (stereo not drawn) [1-chloro-2,2,2-trifluoroethyl difluoromethyl ether, reference compound], the CS/CS113 is listed as 50.2.

In the case of `CCOC(F)(F)C(F)(F)C(F)(F)C(F)(F)F` [ethyl-perfluorobutyl ether], the CS/CS113 is 69.0.

For `FC(OC(F)(F)Br)=C(C(F)(F)F)C(F)(F)F` [1-(bromodifluoromethoxy)-2-(trifluoromethyl)-1,3,3,3-tetrafluoro-1-propene], the CS/CS113 turned out to be 187.0.

For `FC(F)(F)/C=C/C(F)(F)Br` [(E)-1-bromo-1,1,4,4,4-pentafluoro-2-butene], the CS/CS113 turned out to be 36.6.

In the case of `FC(F)OC(F)(F)C(F)(F)OC(F)F` [bis(difluoromethoxy)-tetrafluoroethane], the CS/CS113 amounted to 362.3.
